Tested on: A2058 cancer cells
Assay: pEGFP-N3 polyplex transfection of A2058 cells, light microscopy
Type: cell-based
Conditions: 72 h; SO1861-EMCH or SO1861 = 40 nM supplemented to PAMAM G5-(PEG N3)3.5 polyplexes
Description: Spectrophotometry: Concentrations were determined using either a Thermo Nanodrop 2000 spectrometer or Perkin Elmer Lambda 365 Spectrophotometer. DLS measurements: DLS measurements were performed on a Malvern Nano ZS (Malvern Instruments, U.K.), operating at 633 nm with a 173° scattering angle, at 25 or 37° C. DLS mean diameters were obtained from the intensity particle size distribution provided by Malvern Zetasizer Software. DLS histograms were obtained from the intensity particle size distributions. Zeta-potential: The zeta-potential values of the polyplexes were obtained by laser doppler anemometry (LDA), measuring the mean electrophoretic mobility (Malvern Zetasizer Nano ZS, Malvern Instruments, U.K.). Measurements were performed in 10 mM HEPES pH 7.1, 150 mM NaCl. TEM measurements: TEM measurements were performed on a JEOL JEM-1011 operated at 100 kV electron microscope, equipped with a camera S5 MegaView G2. […] Infrared Spectroscopy: FT-IR spectra were recorded on a Bruker Vertex 70v, equipped with a RockSolid interferometer, after preparing the samples (1-2 mg) as KBr pellets. […] NMR Spectroscopy: 1H NMR spectra were recorded on a 11.7 T Bruker DRX-500 spectrometer. […] Experiments were recorded acquiring 64-512 scans, with a pre-scan delay (d1) of 12 s, and an acquisition time (aq) of 4 s at 300 K. 13C NMR spectrum was recorder on a 9.39 T Varian Innova 400 spectrometer. […]

CC(=O)OC1C(C)OC(OC2C(C)OC(OC(=O)[C@]34CCC(C)(C)CC3C3=CCC5[C@@]6(C)CC[C@H](OC7OC(C(=O)O)C(O)C(OC8OCC(O)C(O)C8O)C7OC7OC(CO)C(O)C(O)C7O)[C@@](C)(/C=N/NC(=O)CCCCCN7C(=O)C=CC7=O)C6CC[C@@]5(C)[C@]3(C)C[C@H]4O)C(OC3OC(C)C(OC4OCC(O)C(OC5OC(CO)C(O)C(O)C5O)C4O)C(O)C3O)C2O)C(O)C1OC1OCC(O)C(O)C1O (stereo partly shown) [SO1861-EMCH]
pEGFP-N3 transfection (eGFP expression): marginal transfection

Source: patent US20260077055A1, “COMPOSITIONS OF POLYPLEXES AND SAPONINS” (SAPREME TECHNOLOGIES B.V., priority 2022, published 2026)
